Assay results: patent US20090048185A1, “Therapeutic Drug for Suppressing Functions of NKT Cells Containing Glycolipid Derivative as Active Ingredient” (priority 2005, published 2009)

Legend:
[1] = system: NKT cells; assay: Effect of the compound on NKT cells (liver mononuclear cells incubated with compound); type: cell-based, C57BL/6J mice; conditions: 48 hours incubation, FIG. 4
Description: Mononuclear cells were isolated from the liver of C57BL/6J mice (8 weeks old, female) and are incubated with the compound for 48 hours.

[2] = system: collagen induced arthritis (CIA); conditions: literature (Chiba et al., Arthritis Rheum. 2004); cited from earlier work
[3] = system: experimental autoimmune encephalomyelitis (EAE); conditions: literature (Miyamoto et al., Nature 2001); cited from earlier work

Compound	IFN-γ production (ELISA, supernatant) [1]	IL-4 production (ELISA, supernatant) [1]	cell proliferation (uptake of tritium thymidine) [1]	suppression of diseases in CIA [2]	suppression of diseases in EAE [3]
CCCCCCCCCCCCCCCCCCCCCCCCCC(=O)N[C@@H](COC1OC(CO)C(O)C(O)C1O)[C@H](O)[C@H](O)CCCCCCCCCCCCCC (stereo partly drawn) [α-GC, α-galactosyl ceramide]	induced	induced	induced	–	–
CCCCCCCCCCCCCCCCCCCCCCCC(=O)N[C@@H](COC1OC(CO)C(O)C(O)C1O)[C@H](O)[C@H](O)CCCCC (some centres unmarked) [OCH]	–	–	–	high effectiveness	high effectiveness
